Test results as given in PMC12670317, “Targeted NAT10 Degradation by PROTAC NP1192 Suppresses Hypoxia-Adaptive Glycolysis and Reinvigorates CD8^+ Effector T‑Cell Function for Synergistic Cancer Immunotherapy” (ACS Central Science, 2025).
Where a SMILES comes first, the peptide text is derived from it. The star is where a group is joined. Cbz = O=C(OCc1ccccc1)*

Experiments:
[1] = target: T1, NAT10 (Homo sapiens, UniProt Q9H0A0); assay: NAT10 degradation in SiHa cells, Western blot; type: cell-based; conditions: SiHa cells; for effect of cotreatment on NP1192-mediated degradation of NAT10: inhibitor 200 nM for 12 h, then NP1192 for 36 h
T1 construct: depletion of total NAT10 protein in SiHa (human) and U14 (murine) CCa cell lines; endogenous in cells; host or cells: SiHa (human cervical cancer cell line)
T1 sequence (Q9H0A0 1-1025): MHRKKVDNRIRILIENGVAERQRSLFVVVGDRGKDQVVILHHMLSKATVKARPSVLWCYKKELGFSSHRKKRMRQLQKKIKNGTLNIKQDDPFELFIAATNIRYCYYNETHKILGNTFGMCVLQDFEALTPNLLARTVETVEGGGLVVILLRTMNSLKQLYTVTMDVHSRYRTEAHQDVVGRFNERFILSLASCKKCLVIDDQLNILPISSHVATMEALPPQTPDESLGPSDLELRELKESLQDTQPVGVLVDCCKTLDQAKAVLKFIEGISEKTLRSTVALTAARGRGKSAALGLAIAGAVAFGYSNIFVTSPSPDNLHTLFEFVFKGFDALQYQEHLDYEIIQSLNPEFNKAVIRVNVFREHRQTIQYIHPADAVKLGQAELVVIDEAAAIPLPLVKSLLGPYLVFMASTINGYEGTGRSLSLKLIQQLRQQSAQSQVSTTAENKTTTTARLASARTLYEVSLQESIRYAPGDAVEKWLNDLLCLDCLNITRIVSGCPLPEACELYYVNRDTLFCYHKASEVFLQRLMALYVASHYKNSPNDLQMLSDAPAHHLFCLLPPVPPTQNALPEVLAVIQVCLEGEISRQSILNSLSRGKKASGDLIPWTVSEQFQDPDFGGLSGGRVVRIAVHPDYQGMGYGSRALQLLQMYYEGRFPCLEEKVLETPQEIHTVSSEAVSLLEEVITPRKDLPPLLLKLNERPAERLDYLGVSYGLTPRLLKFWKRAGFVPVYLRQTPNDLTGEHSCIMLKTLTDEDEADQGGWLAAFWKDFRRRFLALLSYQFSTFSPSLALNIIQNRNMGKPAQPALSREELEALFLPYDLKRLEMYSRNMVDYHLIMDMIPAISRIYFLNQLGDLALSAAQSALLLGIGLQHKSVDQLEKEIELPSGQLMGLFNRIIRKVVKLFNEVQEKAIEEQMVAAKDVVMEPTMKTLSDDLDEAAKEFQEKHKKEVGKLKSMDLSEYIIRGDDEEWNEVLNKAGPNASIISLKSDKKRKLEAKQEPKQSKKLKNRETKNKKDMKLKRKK
Procedure: The human CCa cell line SiHa and the normal epithelial foreskin fibroblast line HFF-1 were purchased from the Cell Bank of the Chinese Academy of Sciences. Additionally, murine cervical carcinoma cell line U14 (RRID:CVCL_9U56) was purchased from Boster Company. HFF-1 and U14 cells were cultured in Dulbecco’s modified Eagle’s medium (DMEM) (Gibco, USA) supplemented with 10% heat-inactivated fetal bovine serum (FBS; Gibco, USA), while SiHa cells were incubated in RPMI 1640 medium (Gibco, USA) in a humid atmosphere with 5% CO2 at 37 °C. For hypoxia exposure, the cells were incubated in a sealed culture tank containing 5% CO2 and 0.1% O2 (MGC, Japan) for 36 h.
RIPA lysis buffer (Beyotime, China) mixed with 1% protease inhibitor (Sigma, US) was added to the cells, and a sample of total protein was obtained and then loaded onto an 8% or 12% polyacrylamide gel. The gel was placed in a buffer solution, and an electric current was applied. The separated proteins were subsequently transferred from the gel onto a PVDF membrane. Next, the membrane was blocked with 5% milk for 1 h to prevent nonspecific antibody binding. The membranes were subsequently incubated with anti-NAT10 (1:1000, Abcam, USA), anti-PD-L1 (1:1000, Proteintech, China), anti-HIF-1α (1:1000, Abmart, China), and anti-β-tubulin (1:1000, Proteintech, China) primary antibodies for 12 h. Afterward, the membrane was sequentially washed with 1× TBST and incubated for 1 h with an antimouse secondary antibody (1:6000, Elabscience, China) or antirabbit secondary antibody (1:6000, Elabscience, China). The target proteins were detected via chemiluminescence with a ChemiDoc MP Imaging System (Bio-Rad, US).

[2] = tested on: SiHa cells; assay: Colony formation assay in SiHa cells; type: cell-based, human; conditions: pretreated 20 μM 36 h, 2 weeks
Procedure: NAT10^± SiHa cells and SiHa cells treated with DMSO, Remodelin or NP1192 for 36 h were seeded into the wells of a 6-well microplate at identical densities of 2000 or 3000 cells per well. The cells were then incubated in the incubator for at least 2 weeks to form colonies. After the incubation period, the cells were fixed with formalin and then stained with crystal violet. The colonies were then counted via a microscope. The number and size of the colonies in the experimental groups were compared.

[3] = tested on: CD8+ TILs, M2 macrophages, MDSCs and Treg cells in U14 xenograft tumors; conditions: Figure 7A
Procedure: U14 cells (1 × 10^7 cells per mouse, approximately 100–150 μL of cell suspension) were implanted subcutaneously into the lateral lower dorsal surface of each mouse. The tumors were allowed to grow for 7 days, and the mice were then administered one of five treatments (group 1: U14 cells + DMSO; group 2: U14 cells + Remodelin; group 3: U14 cells + anti-PD-L1 antibody; group 4: U14 cells + NP1192; group 5: U14 cells + anti-PD-L1 antibody + NP1192). Each group of mice was assigned according to the principles of randomization and the blinding method. Tumors were measured every 2 days, and tumor volume was calculated via the following equation: volume = (width)^2 × length/2. Remodelin and NP1192 were injected into the peritumoral area every 2 days at a dose of 25 mg/kg, and the in vivo antimouse PD-L1 antibody (low endotoxin) was injected every 3 days at a dose of 2.5 mg/kg.
After the mice were euthanized, the tumor and peritumoral tissues were analyzed with an immunoflow kit (BioLegend, USA). The antibodies used for immunoflow cytometry included antihuman/mouse antibodies specific for CD11b-BV711, F4/80-AF647, CD206-PE, CD86-BV605, CD4-CD4-FITC IL-17-17-CY7/CY7, CD25-PE, FOXP3-AF647, CD4-BV605, CD45-PE/CY7, CD11b-BV711 and LY-6G/LY-6C-BV421 (BioLegend catalog no. 321239, RRID:AB_2860843). All data analyses were performed via GraphPad Prism 9, and the data are presented as the mean ± SEMs.

[4] = tested on: SiHa cells; assay: SiHa cell viability IC50 (CCK-8); type: cell-based, human; conditions: Homo sapiens; parental SiHa cells, 36 h; read-out: IC50, inhibition of SiHa cell viability
Procedure: NAT10^± SiHa cells and SiHa cells treated with DMSO, Remodelin or NP1192 for 36 h were seeded into the wells of a 96-well microplate at identical densities of 2000 or 3000 cells per well. After the cells adhered to the well surface, 110 μL of a 1:10 mixture of CCK-8 reagent (Meilunbio, China) and RPMI 1640 medium was added to each well. The microplate was then incubated for another 2 h in the incubator, and the mixture was replaced with an equal volume of medium. A microplate reader (BioTek, US) was used to measure the absorption at a wavelength of 450 nm.

[5] = tested on: Remodelin^Resist SiHa cells; assay: IC50 and resistance index in Remodelin-resistant SiHa cells (CCK-8); type: cell-based, human
Procedure: We generated Remodelin-resistant (Remodelin^Resist SiHa) and NP1192-resistant (NP1192^Resist SiHa) SiHa CCa cell lines by applying a stepwise dose escalation strategy, as previously described in the literature. To quantitatively assess resistance, we calculated the resistance index for each subline following the established methodologies. Briefly, 3000 cells per well were seeded in 96-well plates and treated with increasing concentrations of Remodelin or NP1192 (0, 10, 50, 100, and 150 μM) for 24 h. Following treatment, 10 μL of CCK-8 reagent was added to each well and incubated for an additional 2 h. Absorbance at 490 nm was measured, and the IC50 values were calculated using GraphPad Prism 9.0. The RI was defined as the ratio of the IC50 in resistant cells to that in parental cells.

## N#Cc1ccc(-c2csc(N(CCCCC(=O)NCCCNc3cccc4c3C(=O)N(C3CCC(=O)NC3=O)C4=O)N=C3CCCC3)n2)cc1 (stereo not drawn) [NP1149]
[1]; at 36 h, time course Figure 1G
  NAT10 degradation: 20%
[1]; panel TP1–32 at the same time and concentration, Figure 1E
  NAT10 degradation rate: 23%

## CO/C1=C\C(C)=C\[C@@H](C)[C@@H](O)[C@@H](C)C/C(C)=C/C=C/[C@H](OC)[C@@H]([C@@H](C)[C@@H](O)[C@H](C)[C@@]2(O)C[C@@H](O)[C@H](C)[C@@H](C(C)C)O2)OC1=O [bafilomycin A1, reference compound]
[1]
  effect of cotreatment on NP1192-mediated degradation of NAT10: no discernible effect

## CC(C)C[C@@H](C=O)NC(=O)[C@H](CC(C)C)NC(=O)[C@H](CC(C)C)NC(=O)OCc1ccccc1 [MG132, reference compound] (Cbz-Leu-Leu-Leu-aldehyde)
[1]
  effect of cotreatment on NP1192-mediated degradation of NAT10: significantly impeded

## N#Cc1ccc(-c2csc(NN=C3CCCC3)n2)cc1 [Remodelin, reference compound]
[2]
  colony formation capacity: minimal suppressive effects
[3]; CD4+CD25+FOXP3+
  Treg gate: 0.84%
[3]; CD11b+F4/80+CD206+
  M2 (M2 macrophages gate): 21.24%
[3]; CD11b+LY-6G+
  MDSC gate: 58.69%
[3]; tumors after treatment
  CD8+ (CD8+ TILs gate): 0.56%
[4]
  IC50: 10.7 µM
[5]; 497.3/10.67
  resistance index (RI = IC50 resistant/parental SiHa): 46.60
[5]; Homo sapiens, Remodelin^Resist SiHa cells
  IC50: 497 µM
